PMC5623949, “Exploiting the 2-Amino-1,3,4-thiadiazole Scaffold To Inhibit Trypanosoma brucei Pteridine Reductase in Support of Early-Stage Drug Discovery” (ACS Omega, 2017)

System: not listed separately
Assay: in vitro
Design: cytotoxicity, per cent cell growth of WI-38 fibroblasts
Details: human, wi-38 cells; read-out: % cell growth W1-38 at 10uM
Procedure: (§1) Independent of the effect of any antiparasitic potential of compounds, they were evaluated using a panel of early-toxicity assays comprising cytotoxicity (A549, human lung adenocarcinoma epithelial cell line and WI-38, human lung fibroblasts), mitochondrial toxicity (786-O, human renal carcinoma cell line), hERG inhibition,[31] cytochrome P450 inhibition (CYP1A2, CYP2C9, CYP2C19, CYP2D6, and CYP3A4),[31] and Aurora B kinase inhibition. […] For the two compounds active against TbPTR1 (4m and 4o), IC50 against hERG, cytochrome P450, and mitochondrial toxicity were determined (reported in Supporting Information). We observed that the dose of compounds 4m, 4o, 4c, and 3k was 4 μM in the potentiation assays. […] In the case of hERG, CYP2D6, CYP2A9, CYP2C19, and mitochondrial toxicity, there is a selectivity index of around 3–4 fold, thus showing an acceptable profile.  Figure 10 Summary heat map of the in vitro assays to determine possible liability issues for all synthesized compounds. Assays were performed to assess inhibition of hERG and five CYP isoforms (1A2, 2C9, 2C19, 2D6, and 3A4), growth inhibition of A549 and W1-38 cell lines, and mitochondrial toxicity at 10 μM. The hDHFR inhibition was determined at 100 μM. The data, expressed as percentage values, were organized by adopting a color code for rapid and intuitive visualization. The ideal compound should have all tiles blue, indicating a safe toxicological profile for progressing into the development pipeline. The cells are colored from blue (100% of cell growth at the tested concentration) to red (0% of cell growth at the tested concentration) for A549 and W1-38 and from blue (0% of inhibitory activity at the tested concentration) to red (100% of inhibitory activity at the tested concentration) for CYP isoforms, hERG, hDHFR, and mitochondrial toxicity.

Structure (SMILES) | viability at 10 µM
Nc1nnc(Cc2cccc([N+](=O)[O-])c2)s1 [3c] | 88.4 ± 11.1%
Nc1nnc(NCCCc2ccccc2)s1 [4q, N2G(3Gphenylpropyl)G1,3,4GthiadiazoleG2,5Gdiamine] | 111 ± 43.7%
Nc1nnc(Cc2ccc3ccccc3c2)s1 [3e] | 105 ± 38.5%
NCc1ccc(-c2nnc(N)s2)cc1 [1b] | 98.7 ± 11.4%
Cc1nnc(N)s1 [3a] | 130 ± 5.8%
Nc1nnc(-c2cccc([N+](=O)[O-])c2)s1 [1k] | 108 ± 16.8%

Target: T1, TbPTR1 (Trypanosoma brucei brucei, UniProt O76290)
T1 construct: made in house
T1 sequence (O76290 1-268): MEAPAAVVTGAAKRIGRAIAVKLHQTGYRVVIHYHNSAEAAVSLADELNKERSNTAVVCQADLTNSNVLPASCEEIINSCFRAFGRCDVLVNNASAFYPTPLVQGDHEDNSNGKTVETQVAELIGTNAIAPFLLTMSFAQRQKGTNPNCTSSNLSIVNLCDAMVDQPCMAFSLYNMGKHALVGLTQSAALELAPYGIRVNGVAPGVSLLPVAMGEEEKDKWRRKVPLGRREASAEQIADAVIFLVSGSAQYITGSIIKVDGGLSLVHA
Assay: biochemical
Details: 50 μM compound

Structure (SMILES) | % Inhibition TbPTR1 at 50 μM
NCc1ccc(-c2nnc(N)s2)cc1 [1b] | did not show inhibition

Same assay, conditions: 50 μM compound; read-out: % Inhibition TbPTR1 at 50 μM

Structure (SMILES) | inhibition at 50 µM
Nc1nnc(Cc2cccc([N+](=O)[O-])c2)s1 [3c] | 15.8 ± 0.5%
Nc1nnc(NCCCc2ccccc2)s1 [4q, N2G(3Gphenylpropyl)G1,3,4GthiadiazoleG2,5Gdiamine] | 30 ± 1.9%
Nc1nnc(Cc2ccc3ccccc3c2)s1 [3e] | 20.9 ± 0.3%
NCc1ccc(-c2nnc(N)s2)cc1 [1b] | 7.7 ± 0.6%
Cc1nnc(N)s1 [3a] | 5.4 ± 0.7%
Nc1nnc(-c2cccc([N+](=O)[O-])c2)s1 [1k] | 15.6 ± 1.1%

Same assay, conditions: dose-response 0.001-100 μM

Structure (SMILES) | IC50
Nc1nnc(NCCCc2ccccc2)s1 [4q, N2G(3Gphenylpropyl)G1,3,4GthiadiazoleG2,5Gdiamine] | 57 µM

Target: T2, hERG (Homo sapiens, UniProt Q12809)
T2 construct: gene KCNH2
T2 sequence (Q12809 whole entry): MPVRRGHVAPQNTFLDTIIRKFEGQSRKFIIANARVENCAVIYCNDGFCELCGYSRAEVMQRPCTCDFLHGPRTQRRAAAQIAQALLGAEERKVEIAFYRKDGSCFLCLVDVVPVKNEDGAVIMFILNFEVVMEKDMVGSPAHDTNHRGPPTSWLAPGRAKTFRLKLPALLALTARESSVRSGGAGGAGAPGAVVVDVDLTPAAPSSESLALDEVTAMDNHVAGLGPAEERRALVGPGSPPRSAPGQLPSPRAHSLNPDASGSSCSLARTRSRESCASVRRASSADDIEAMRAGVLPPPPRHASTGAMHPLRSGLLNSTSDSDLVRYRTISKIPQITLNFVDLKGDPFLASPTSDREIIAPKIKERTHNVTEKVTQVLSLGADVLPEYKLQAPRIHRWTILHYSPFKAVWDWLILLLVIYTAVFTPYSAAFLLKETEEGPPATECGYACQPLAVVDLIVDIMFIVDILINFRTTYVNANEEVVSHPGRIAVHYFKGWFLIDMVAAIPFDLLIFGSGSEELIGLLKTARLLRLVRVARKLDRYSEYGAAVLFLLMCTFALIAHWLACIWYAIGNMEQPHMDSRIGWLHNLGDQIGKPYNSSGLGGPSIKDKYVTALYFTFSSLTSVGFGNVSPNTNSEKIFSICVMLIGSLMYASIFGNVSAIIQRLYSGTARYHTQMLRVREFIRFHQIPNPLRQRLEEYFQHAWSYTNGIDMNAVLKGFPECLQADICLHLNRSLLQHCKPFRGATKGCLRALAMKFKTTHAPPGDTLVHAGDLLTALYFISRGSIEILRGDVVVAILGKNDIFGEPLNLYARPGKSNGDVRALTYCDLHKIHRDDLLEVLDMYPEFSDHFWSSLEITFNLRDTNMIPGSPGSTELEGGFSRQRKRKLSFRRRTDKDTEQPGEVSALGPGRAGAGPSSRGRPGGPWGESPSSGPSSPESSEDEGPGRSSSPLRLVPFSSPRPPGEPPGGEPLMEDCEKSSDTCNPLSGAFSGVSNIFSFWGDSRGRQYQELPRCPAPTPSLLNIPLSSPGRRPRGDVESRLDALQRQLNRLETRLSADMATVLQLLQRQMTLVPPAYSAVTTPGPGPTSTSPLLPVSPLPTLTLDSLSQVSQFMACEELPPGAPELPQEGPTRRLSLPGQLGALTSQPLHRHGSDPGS
Assay: not given
Design: hERG inhibition liability assay
Details: not given
Procedure: as §1

Structure (SMILES) | inhibition at 10 µM
Nc1nnc(Cc2cccc([N+](=O)[O-])c2)s1 [3c] | -1.8 ± 0.6%
Nc1nnc(NCCCc2ccccc2)s1 [4q, N2G(3Gphenylpropyl)G1,3,4GthiadiazoleG2,5Gdiamine] | 81.1 ± 11.6%
Nc1nnc(Cc2ccc3ccccc3c2)s1 [3e] | -5.6 ± 3.5%
NCc1ccc(-c2nnc(N)s2)cc1 [1b] | 5.7 ± 3.9%
Cc1nnc(N)s1 [3a] | 8.2 ± 6.6%
Nc1nnc(-c2cccc([N+](=O)[O-])c2)s1 [1k] | 7 ± 5.8%

System: not listed separately
Assay: in vitro
Design: cytotoxicity, per cent cell growth of A549 cells
Details: human, a549 cells; read-out: % cell growth A549 at 10uM
Procedure: as §1

Structure (SMILES) | viability at 10 µM
Nc1nnc(Cc2cccc([N+](=O)[O-])c2)s1 [3c] | 117 ± 3.5%
Nc1nnc(NCCCc2ccccc2)s1 [4q, N2G(3Gphenylpropyl)G1,3,4GthiadiazoleG2,5Gdiamine] | 106 ± 3.7%
Nc1nnc(Cc2ccc3ccccc3c2)s1 [3e] | 141 ± 5.6%
NCc1ccc(-c2nnc(N)s2)cc1 [1b] | 114 ± 1.2%
Cc1nnc(N)s1 [3a] | 130 ± 19.1%
Nc1nnc(-c2cccc([N+](=O)[O-])c2)s1 [1k] | 113 ± 1.9%

Target: CYP2D6 (Homo sapiens, UniProt P10635)
Sequence (P10635 whole entry): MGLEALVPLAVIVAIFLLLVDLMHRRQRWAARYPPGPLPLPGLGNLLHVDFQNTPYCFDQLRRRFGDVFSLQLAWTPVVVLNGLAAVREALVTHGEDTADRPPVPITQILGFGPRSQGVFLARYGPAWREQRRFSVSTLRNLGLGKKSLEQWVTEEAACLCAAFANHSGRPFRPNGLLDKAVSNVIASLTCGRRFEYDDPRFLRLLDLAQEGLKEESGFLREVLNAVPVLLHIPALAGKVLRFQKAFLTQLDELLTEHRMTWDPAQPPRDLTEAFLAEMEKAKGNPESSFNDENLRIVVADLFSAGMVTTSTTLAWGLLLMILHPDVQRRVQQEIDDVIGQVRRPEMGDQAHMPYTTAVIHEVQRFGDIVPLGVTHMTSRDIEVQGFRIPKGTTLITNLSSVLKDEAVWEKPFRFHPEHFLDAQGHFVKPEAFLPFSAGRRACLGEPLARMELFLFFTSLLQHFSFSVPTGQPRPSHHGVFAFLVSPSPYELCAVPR
Assay: in vitro
Design: cytochrome P450 isoform inhibition liability assay
Details: not given
Procedure: as §1

Structure (SMILES) | inhibition at 10 µM
Nc1nnc(Cc2cccc([N+](=O)[O-])c2)s1 [3c] | -38.6 ± 16.3%
Nc1nnc(NCCCc2ccccc2)s1 [4q, N2G(3Gphenylpropyl)G1,3,4GthiadiazoleG2,5Gdiamine] | 100.2 ± 0.4%
Nc1nnc(Cc2ccc3ccccc3c2)s1 [3e] | -31.7 ± 1.7%
NCc1ccc(-c2nnc(N)s2)cc1 [1b] | -44.2 ± 10.4%
Cc1nnc(N)s1 [3a] | -46 ± 4.5%
Nc1nnc(-c2cccc([N+](=O)[O-])c2)s1 [1k] | -49.3 ± 17.6%

Target: CYP2C19 (Homo sapiens, UniProt P33261)
Sequence (P33261 whole entry): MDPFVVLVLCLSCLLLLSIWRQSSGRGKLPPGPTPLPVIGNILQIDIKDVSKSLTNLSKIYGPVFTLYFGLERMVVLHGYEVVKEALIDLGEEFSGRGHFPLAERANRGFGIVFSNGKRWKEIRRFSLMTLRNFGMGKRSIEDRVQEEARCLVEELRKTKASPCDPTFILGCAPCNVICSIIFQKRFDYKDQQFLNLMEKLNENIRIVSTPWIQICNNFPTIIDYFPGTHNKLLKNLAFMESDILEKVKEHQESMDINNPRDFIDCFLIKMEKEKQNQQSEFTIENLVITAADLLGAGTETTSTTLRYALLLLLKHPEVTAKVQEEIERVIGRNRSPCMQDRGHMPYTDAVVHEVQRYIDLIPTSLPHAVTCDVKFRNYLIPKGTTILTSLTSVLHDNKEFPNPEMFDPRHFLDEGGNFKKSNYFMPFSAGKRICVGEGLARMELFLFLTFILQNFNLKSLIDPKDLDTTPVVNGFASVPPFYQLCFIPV
Assay: in vitro
Design: cytochrome P450 isoform inhibition liability assay
Details: not given
Procedure: as §1

Structure (SMILES) | inhibition at 10 µM
Nc1nnc(Cc2cccc([N+](=O)[O-])c2)s1 [3c] | -36.1 ± 11.8%
Nc1nnc(NCCCc2ccccc2)s1 [4q, N2G(3Gphenylpropyl)G1,3,4GthiadiazoleG2,5Gdiamine] | 17.3 ± 4.6%
Nc1nnc(Cc2ccc3ccccc3c2)s1 [3e] | -54.9 ± 9.3%
NCc1ccc(-c2nnc(N)s2)cc1 [1b] | -17.9 ± 3.7%
Cc1nnc(N)s1 [3a] | -35.5 ± 2.4%
Nc1nnc(-c2cccc([N+](=O)[O-])c2)s1 [1k] | -28.3 ± 17.9%

Target: CYP3A4 (Homo sapiens, UniProt P08684)
Sequence (P08684 whole entry): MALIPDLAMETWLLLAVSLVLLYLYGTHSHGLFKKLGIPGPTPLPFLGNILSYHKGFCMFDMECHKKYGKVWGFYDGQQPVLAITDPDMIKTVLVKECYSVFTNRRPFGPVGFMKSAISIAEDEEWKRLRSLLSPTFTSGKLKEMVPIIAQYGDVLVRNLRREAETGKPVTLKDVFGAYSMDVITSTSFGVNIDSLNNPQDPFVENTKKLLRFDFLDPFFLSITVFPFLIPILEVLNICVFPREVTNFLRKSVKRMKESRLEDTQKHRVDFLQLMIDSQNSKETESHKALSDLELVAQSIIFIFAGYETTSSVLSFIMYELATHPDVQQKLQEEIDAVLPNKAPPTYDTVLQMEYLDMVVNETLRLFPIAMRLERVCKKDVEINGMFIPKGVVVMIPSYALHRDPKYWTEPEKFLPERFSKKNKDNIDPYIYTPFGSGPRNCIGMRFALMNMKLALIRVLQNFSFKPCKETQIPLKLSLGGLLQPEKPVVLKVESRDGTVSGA
Assay: in vitro
Design: cytochrome P450 isoform inhibition liability assay
Details: not given
Procedure: as §1

Structure (SMILES) | inhibition at 10 µM
Nc1nnc(Cc2cccc([N+](=O)[O-])c2)s1 [3c] | -16.9 ± 5.2%
Nc1nnc(NCCCc2ccccc2)s1 [4q, N2G(3Gphenylpropyl)G1,3,4GthiadiazoleG2,5Gdiamine] | 24.2 ± 4.7%
Nc1nnc(Cc2ccc3ccccc3c2)s1 [3e] | -3.2 ± 3.8%
NCc1ccc(-c2nnc(N)s2)cc1 [1b] | 23.7 ± 2.2%
Cc1nnc(N)s1 [3a] | -22.3 ± 9%
Nc1nnc(-c2cccc([N+](=O)[O-])c2)s1 [1k] | -14.2 ± 13.2%

Target: T3, CYP1A2 (Homo sapiens, UniProt P05177)
T3 sequence (P05177 1-516): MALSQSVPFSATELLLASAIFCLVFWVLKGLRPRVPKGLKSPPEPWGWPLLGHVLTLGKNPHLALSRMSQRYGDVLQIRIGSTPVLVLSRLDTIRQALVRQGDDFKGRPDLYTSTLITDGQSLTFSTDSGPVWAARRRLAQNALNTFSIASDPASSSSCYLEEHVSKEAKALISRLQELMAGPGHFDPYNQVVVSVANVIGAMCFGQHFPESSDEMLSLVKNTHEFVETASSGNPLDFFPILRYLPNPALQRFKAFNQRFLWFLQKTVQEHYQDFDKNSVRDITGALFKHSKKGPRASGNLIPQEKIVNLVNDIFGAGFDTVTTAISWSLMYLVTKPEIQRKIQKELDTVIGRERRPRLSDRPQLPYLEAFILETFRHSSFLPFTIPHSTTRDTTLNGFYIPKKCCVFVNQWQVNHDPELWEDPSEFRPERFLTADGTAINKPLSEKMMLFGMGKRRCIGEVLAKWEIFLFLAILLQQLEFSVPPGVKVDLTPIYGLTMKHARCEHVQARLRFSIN
Assay: in vitro
Design: cytochrome P450 isoform inhibition liability assay
Details: not given
Procedure: as §1

Structure (SMILES) | inhibition at 10 µM
Nc1nnc(Cc2cccc([N+](=O)[O-])c2)s1 [3c] | -10.9 ± 1.6%
Nc1nnc(NCCCc2ccccc2)s1 [4q, N2G(3Gphenylpropyl)G1,3,4GthiadiazoleG2,5Gdiamine] | 22.1 ± 2.7%
Nc1nnc(Cc2ccc3ccccc3c2)s1 [3e] | 0.4 ± 1.3%
NCc1ccc(-c2nnc(N)s2)cc1 [1b] | -5.3 ± 10.2%
Cc1nnc(N)s1 [3a] | -6.6 ± 2.1%
Nc1nnc(-c2cccc([N+](=O)[O-])c2)s1 [1k] | 31.1 ± 2.7%

Target: CYP2C9 (Homo sapiens, UniProt P11712)
Sequence (P11712 whole entry): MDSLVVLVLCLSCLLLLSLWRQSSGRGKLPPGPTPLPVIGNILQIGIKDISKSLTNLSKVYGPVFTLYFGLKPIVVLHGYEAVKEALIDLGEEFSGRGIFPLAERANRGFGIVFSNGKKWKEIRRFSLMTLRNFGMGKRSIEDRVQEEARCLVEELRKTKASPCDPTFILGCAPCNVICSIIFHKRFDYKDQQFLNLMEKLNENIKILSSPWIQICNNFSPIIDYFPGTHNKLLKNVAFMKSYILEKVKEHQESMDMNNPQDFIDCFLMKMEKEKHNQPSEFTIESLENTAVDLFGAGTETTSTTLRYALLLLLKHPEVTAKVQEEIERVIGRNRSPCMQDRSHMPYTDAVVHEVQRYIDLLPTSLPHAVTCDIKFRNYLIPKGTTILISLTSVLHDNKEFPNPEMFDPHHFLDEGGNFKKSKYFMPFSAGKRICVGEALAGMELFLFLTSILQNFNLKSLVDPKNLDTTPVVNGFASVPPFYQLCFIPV
Assay: in vitro
Design: cytochrome P450 isoform inhibition liability assay
Details: not given
Procedure: as §1

Structure (SMILES) | inhibition at 10 µM
Nc1nnc(Cc2cccc([N+](=O)[O-])c2)s1 [3c] | -8.8 ± 3%
Nc1nnc(NCCCc2ccccc2)s1 [4q, N2G(3Gphenylpropyl)G1,3,4GthiadiazoleG2,5Gdiamine] | 18.6 ± 4.5%
Nc1nnc(Cc2ccc3ccccc3c2)s1 [3e] | -47.8 ± 3.9%
NCc1ccc(-c2nnc(N)s2)cc1 [1b] | -7.9 ± 0.8%
Cc1nnc(N)s1 [3a] | -10.9 ± 5%
Nc1nnc(-c2cccc([N+](=O)[O-])c2)s1 [1k] | 12.5 ± 6.8%

System: T. b. brucei Lister 427 bloodstream forms
Assay: In vitro activity against T. brucei (HTS SYBR Green I growth inhibition assay)
Assay type: cell-based, Trypanosoma brucei brucei
Details: Trypanosoma brucei, 50 μM; standard deviation within ±10% of the value; read-out: % Inhibition T. brucei at 50 μM

Structure (SMILES) | inhibition at 50 µM
Nc1nnc(Cc2cccc([N+](=O)[O-])c2)s1 [3c] | 0.8%
Nc1nnc(NCCCc2ccccc2)s1 [4q, N2G(3Gphenylpropyl)G1,3,4GthiadiazoleG2,5Gdiamine] | < 0%
Nc1nnc(Cc2ccc3ccccc3c2)s1 [3e] | 0.4%
NCc1ccc(-c2nnc(N)s2)cc1 [1b] | 93%
Cc1nnc(N)s1 [3a] | < 0%
Nc1nnc(-c2cccc([N+](=O)[O-])c2)s1 [1k] | 1.4%

Same assay, conditions: Trypanosoma brucei, standard deviation within ±10% of the value; read-out: EC50 T. brucei

Structure (SMILES) | EC50
NCc1ccc(-c2nnc(N)s2)cc1 [1b] | 0.8 µM

System: 786-O
Assay: cells
Design: mitochondrial toxicity in 786-O renal carcinoma cells
Details: Homo sapiens, 786-0; mitochondrial toxicity
Procedure: as §1

Structure (SMILES) | inhibition at 10 µM
Nc1nnc(Cc2cccc([N+](=O)[O-])c2)s1 [3c] | -4.11 ± 5.77%
Nc1nnc(NCCCc2ccccc2)s1 [4q, N2G(3Gphenylpropyl)G1,3,4GthiadiazoleG2,5Gdiamine] | 5.6 ± 18%
Nc1nnc(Cc2ccc3ccccc3c2)s1 [3e] | 4.3 ± 8.6%
NCc1ccc(-c2nnc(N)s2)cc1 [1b] | 4.5 ± 2.5%
Cc1nnc(N)s1 [3a] | -4.4 ± 14.3%
Nc1nnc(-c2cccc([N+](=O)[O-])c2)s1 [1k] | -5.7 ± 12.9%
